From patent US20180155344A1, “TRICYCLIC PIPERIDINE COMPOUNDS” (ACTELION PHARMACEUTICALS LTD, priority 2015, published 2018) come the findings set out here.

Counter-ions that a name gives are not always drawn.

The target of the assay is T1, human TPH1 (Homo sapiens, UniProt P17752).
T1 sequence (P17752 1-444): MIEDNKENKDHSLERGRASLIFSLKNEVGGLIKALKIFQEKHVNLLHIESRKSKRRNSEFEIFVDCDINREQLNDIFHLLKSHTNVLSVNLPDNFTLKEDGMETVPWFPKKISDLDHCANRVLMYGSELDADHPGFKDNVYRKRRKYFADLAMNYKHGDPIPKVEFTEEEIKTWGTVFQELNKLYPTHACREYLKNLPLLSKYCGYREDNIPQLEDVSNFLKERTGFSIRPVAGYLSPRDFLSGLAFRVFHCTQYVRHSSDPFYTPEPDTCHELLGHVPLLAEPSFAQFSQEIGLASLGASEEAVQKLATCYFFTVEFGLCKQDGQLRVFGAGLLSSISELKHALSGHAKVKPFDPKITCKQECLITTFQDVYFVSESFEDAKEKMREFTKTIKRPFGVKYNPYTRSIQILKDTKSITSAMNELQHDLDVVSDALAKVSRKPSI
Kind of assay: biochemical. Put shortly:
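Inhibition is derived from 5-hydroxy-L-tryptophan fluorescence (540 nm emission, 300 nm excitation) after perchloric acid stop, relative to DMSO vehicle. Recombinant full-length human enzyme (40-80 nM) reacts with 40 μM tryptophan plus 100 μM methyltetrahydropterin, pH 7.6 Tris/DTT/catalase, 15° C, 60 min.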
One may read the IC50 as the concentration at which inhibition is half-maximal. Compound `COc1ccc(C2c3c(nc4cc(C(F)(F)F)ccn34)CCN2C(=O)COc2ccc3ccccc3c2)cc1OC` (stereo not drawn) [Example 3.1.1, 1-(1-(3,4-dimethoxyphenyl)-7-(trifluoromethyl)-3,4-dihydroimidazo[1,2-a:5,4-c′]dipyridin-2(1H)-yl)-2-(naphthalen-2-yloxy)ethan-1-one] gave an IC50 of 15 nM. This lies in the double-digit nanomolar range. The same measure for `COc1ccc(C2c3c(nc4cc(C(F)(F)F)ccn34)CCN2C(=O)COc2cc(C)ccc2Cl)cc1OC` (stereo not drawn) [Example 3.1.12, 2-(2-chloro-5-methylphenoxy)-1-(1-(3,4-dimethoxyphenyl)-7-(trifluoromethyl)-3,4-dihydroimidazo[1,2-a:5,4-c′]dipyridin-2(1H)-yl)ethan-1-one]: 64 nM; for `O=C(COc1ccc(C(F)(F)F)nc1Cl)N1CCc2nc3cccnn3c2C1c1ncc(C2CC2)cc1F` (stereo not drawn) [Example 16.2.6, 2-((2-chloro-6-(trifluoromethyl)pyridin-3-yl)oxy)-1-(9-(5-cyclopropyl-3-fluoropyridin-2-yl)-6,9-dihydropyrido[4′,3′:4,5]imidazo[1,2-b]pyridazin-8(7H)-yl)ethan-1-one]: 290 nM.

`Cc1ccc(C2c3c(nc4cc(C(F)(F)F)ccn34)CCN2C(=O)COc2ccc(CN3CCOCC3)cc2Cl)cc1` (stereo not drawn) [Example 3.23.2, 2-(2-chloro-4-(morpholinomethyl)phenoxy)-1-(1-(p-tolyl)-7-(trifluoromethyl)-3,4-dihydroimidazo[1,2-a:5,4-c′]dipyridin-2(1H)-yl)ethan-1-one] came in with an IC50 of 32 nM.

As to `COc1ccc(C2c3c(nc4cc(Cl)ccn34)CCN2C(=O)COc2ccc(CN3CCOCC3)cc2Cl)cc1OC[C@H](O)CO` (stereo partly drawn) [Example 2.10.2, 1-(7-chloro-1-(3-((R)-2,3-dihydroxypropoxy)-4-methoxyphenyl)-3,4-dihydroimidazo[1,2-a:5,4-c′]dipyridin-2(1H)-yl)-2-(2-chloro-4-(morpholinomethyl)phenoxy)ethan-1-one], it took 19 nM to reach half-maximal inhibition (IC50). Against the preceding compound, the IC50 is about 1.7-fold lower.

On to `COc1cc(F)c(C2c3c(nc4cc(C(F)(F)F)ccn34)CCN2C(=O)COc2ccc3c(c2)CN(C(=O)OC(C)(C)C)CC3)cc1OC` (stereo not drawn) [Example 3.18.3, tert-butyl 7-(2-(1-(2-fluoro-4,5-dimethoxyphenyl)-7-(trifluoromethyl)-3,4-dihydroimidazo[1,2-a:5,4-c′]dipyridin-2(1H)-yl)-2-oxoethoxy)-3,4-dihydroisoquinoline-2(1H)-carboxylate], for which half-maximal inhibition (IC50) required 9 nM. Then `COc1ccc(C2c3c(nc4cc(C(F)(F)F)ccn34)CCN2C(=O)COc2ccccc2C(F)(F)F)cc1OC` (stereo not drawn) [Example 3.1.7, 1-(1-(3,4-dimethoxyphenyl)-7-(trifluoromethyl)-3,4-dihydroimidazo[1,2-a:5,4-c′]dipyridin-2(1H)-yl)-2-(2-(trifluoromethyl)phenoxy)ethan-1-one], with 29 nM; and `COc1cc(C2c3c(nc4cc(C(F)(F)F)ccn34)CCN2C(=O)COc2ccc3ccccc3c2)ccc1OC(F)F` (stereo not drawn) [Example 3.14.1, 1-(1-(4-(difluoromethoxy)-3-methoxyphenyl)-7-(trifluoromethyl)-3,4-dihydroimidazo[1,2-a:5,4-c′]dipyridin-2(1H)-yl)-2-(naphthalen-2-yloxy)ethan-1-one], with 106 nM; and `CCc1cc2nc3c(n2cc1C)C(c1ccc(OC)c(OC)c1)N(C(=O)COc1ccc2ccccc2c1C)CC3` (stereo not drawn) [Example 6.1.4, 1-(1-(3,4-dimethoxyphenyl)-7-ethyl-8-methyl-3,4-dihydroimidazo[1,2-a:5,4-c′]dipyridin-2(1H)-yl)-2-((1-methylnaphthalen-2-yl)oxy)ethan-1-one hydrochloride], with 8 nM. Then `O=C(COc1ccc(N2CCOCC2)cc1Cl)N1CCc2nc3ccccn3c2C1c1ccc(C2CC2)cc1F` (stereo not drawn) [Example 1.5.1, 2-(2-chloro-4-morpholinophenoxy)-1-(1-(4-cyclopropyl-2-fluorophenyl)-3,4-dihydroimidazo[1,2-a:5,4-c′]dipyridin-2(1H)-yl)ethan-1-one], with 9 nM. Take `COc1ccc(C2c3c(nc4cc(C(F)(F)F)ccn34)CCN2C(=O)COc2ccc(CN3CCOCC3)cc2Cl)cc1OC` (stereo not drawn) [Example 3.1.26, 2-(2-chloro-4-(morpholinomethyl)phenoxy)-1-(1-(3,4-dimethoxyphe-nyl)-7-(trifluoromethyl)-3,4-dihydroimidazo[1,2-a:5,4-c′]dipyridin-2(1H)-yl)ethan-1-one]: the IC50 amounted to 17 nM. Then `COc1ccc(C2c3c(nc4ccccn34)CCN2C(=O)COc2cccc3ccccc23)cc1OC` (stereo not drawn) [Example 1.1.3, 1-(1-(3,4-dimethoxyphenyl)-3,4-dihydroimidazo[1,2-a:5,4-c′]dipyridin-2(1H)-yl)-2-(naphthalen-1-yloxy)ethan-1-one], with 134 nM. In the case of `O=C(COc1ccc(N2CCOCC2)nc1Cl)N1CCc2nc3ccccn3c2C1c1ncc(C2CC2)cc1F` (stereo not drawn) [Example 1.12.1, 2-((2-chloro-6-morpholinopyridin-3-yl)oxy)-1-(1-(5-cyclopropyl-3-fluoropyridin-2-yl)-3,4-dihydroimidazo[1,2-a:5,4-c′]dipyridin-2(1H)-yl)ethan-1-one], the IC50 worked out at 8 nM. Then `COc1ccc(C2c3c(nc4cc(Cl)ccn34)CCN2C(=O)COc2ccc(CO)cc2Cl)cc1OC` (stereo not drawn) [Example 2.1.3, 1-(7-chloro-1-(3,4-dimethoxyphenyl)-3,4-dihydroimidazo[1,2-a:5,4-c′]dipyridin-2(1H)-yl)-2-(2-chloro-4-(hydroxymethyl)phenoxy)ethan-1-one], with 402 nM; and `COc1ccc(C2c3c(nc4cc(Cl)ccn34)CCN2C(=O)COc2ccc(CN3CCOCC3)cc2Cl)c(F)c1` (stereo not drawn) [Example 2.3.1, 1-(7-chloro-1-(2-fluoro-4-methoxyphenyl)-3,4-dihydroimidazo[1,2-a:5,4-c′]dipyridin-2(1H)-yl)-2-(2-chloro-4-(morpholinomethyl)phenoxy)ethan-1-one], with 8 nM; and `O=C(COc1ccc(N2CCOCC2)nc1Cl)N1CCc2nc3ccccn3c2C1c1ccc(Cl)cc1F` (stereo not drawn) [Example 1.4.5, 1-(1-(4-chloro-2-fluorophenyl)-3,4-dihydroimidazo[1,2-a:5,4-c′]dipyridin-2(1H)-yl)-2-((2-chloro-6-morpholinopyridin-3-yl)oxy)ethan-1-one], with 5 nM. As for `O=C(COc1ccc(CN2CCOCC2)cc1Cl)N1CCc2nc3cc(C(F)(F)F)ccn3c2C1c1ccc(F)c(F)c1` (stereo not drawn) [Example 3.34.2, 2-(2-chloro-4-(morpholinomethyl)phenoxy)-1-(1-(3,4-difluorophenyl)-7-(trifluoromethyl)-3,4-dihydroimidazo[1,2-a:5,4-c′]dipyridin-2(1H)-yl)ethan-1-one], half-maximal inhibition (IC50) was put at 242 nM. The same measure for `Cc1noc(C)c1C1c2c(nc3cc(C(F)(F)F)ccn23)CCN1C(=O)COc1ccc2ccccc2c1` (stereo not drawn) [Example 3.51.1, 1-(1-(3,5-dimethylisoxazol-4-yl)-7-(trifluoromethyl)-3,4-dihydroimidazo[1,2-a:5,4-c′]dipyridin-2(1H)-yl)-2-(naphthalen-2-yloxy)ethan-1-one]: 87 nM; for `COc1ccc(C2c3c(nc4cc(C(F)(F)F)ccn34)CCN2C(=O)COc2ccc(C(F)(F)F)cc2)cc1OC` (stereo not drawn) [Example 3.1.8]: 132 nM; for `O=C(COc1ccc(CN2CCOCC2)cc1Cl)N1CCc2nc3cc(C(F)(F)F)ccn3c2C1c1ccc(C(F)(F)F)cc1` (stereo not drawn) [Example 3.28.2, 2-(2-chloro-4-(morpholinomethyl)phenoxy)-1-(7-(trifluoromethyl)-1-(4-(trifluoromethyl)phenyl)-3,4-dihydroimidazo[1,2-a:5,4-c′]dipyridin-2(1H)-yl)ethan-1-one]: 77 nM. With `O=C(COc1cccnc1C(F)(F)F)N1CCc2nc3cccnn3c2C1c1ncc(C2CC2)cc1F` (stereo not drawn) [Example 16.2.3, 1-(9-(5-cyclopropyl-3-fluoropyridin-2-yl)-6,9-dihydropyrido[4′,3′:4,5]imidazo[1,2-b]pyridazin-8(7H)-yl)-2-((2-(trifluoromethyl)pyridin-3-yl)oxy)ethan-1-one], the IC50 is 144 nM. `O=C(COc1ccc(N2CCOCC2)nc1Cl)N1CCc2nc3ncccn3c2C1c1ccc(C2CC2)cc1F` (stereo not drawn) [Example 18.1.1, 2-((2-chloro-6-morpholinopyridin-3-yl)oxy)-1-(6-(4-cyclopropyl-2-fluorophenyl)-8,9-dihydropyrido[4′,3′:4,5]imidazo[1,2-a]pyrimidin-7(6H)-yl)ethan-1-one] showed an IC50 of 56 nM. The same measure for `COC(=O)c1ccc(C2c3c(nc4ccccn34)CCN2C(=O)COc2ccc(NS(C)(=O)=O)nc2Cl)c(F)c1` (stereo not drawn) [Example 1.15.1, methyl-4-(2-(2-((2-chloro-6-(methylsulfonamido)pyridin-3-yl)oxy)acetyl)-1,2,3,4-tetrahydroimidazo[1,2-a:5,4-c′]dipyridin-1-yl)-3-fluorobenzoate]: 71 nM. The same measure for `COc1ncc(C2c3c(nc4cc(C(F)(F)F)ccn34)CCN2C(=O)COc2ccc3ccccc3c2)cn1` (stereo not drawn) [Example 3.55.1, 1-(1-(2-methoxypyrimidin-5-yl)-7-(trifluoromethyl)-3,4-dihydroimidazo[1,2-a:5,4-c′]dipyridin-2(1H)-yl)-2-(naphthalen-2-yloxy)ethan-1-one]: 67 nM.
